The text below walks through data of patent publication US8088806B2 (Achillion Pharmaceuticals, Inc., priority 2005, dated 2012).

Where only a bound is given, the exact number is not on record here.

The test system of the experiment is HCV replicon. The experiment is described as follows: Replicon based assay of HCV replication inhibition (NPT ELISA). Format: cell-based, Hepatitis C virus. The note with it: Hepatitis C virus, Huh-7, 72 h, Table I; Huh-7 HCV replicon-containing cells, three days; read-out: Activity. Put shortly:
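NPT (neomycin phosphotransferase) content, proportional to replicon replication, quantified by capture ELISA on day four. Before that, replicon-bearing Huh-7 cells in G418-free screening medium were exposed three days at 37° C to compound, typically six doses from 10 to 0.03 micromolar, with equal DMSO across wells.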
With `CCCCCOc1ccc(Nc2nc(-c3cc(-c4ccc(Cl)c(Cl)c4)no3)cs2)cc1F` [compound 175, 4-(3-(3,4-dichlorophenyl)isoxazol-5-yl)-N-(3-fluoro-4-(pentyloxy)phenyl)thiazol-2-amine], the EC50 is greater than 10000 nM.
`CCCCCOc1ccc(Nc2nc(-c3cc(C(=O)OCC)no3)cs2)cc1F` [compound 176, ethyl 5-(2-(3-fluoro-4-(pentyloxy)phenylamino)thiazol-4-yl)isoxazole-3-carboxylate]: the EC50 is greater than 10000 nM.
As for `CCCCCOc1ccc(Nc2nc(-c3ccccc3Cl)cs2)cc1F` [compound 177, 4-(2-chlorophenyl)-N-(3-fluoro-4-(pentyloxy)phenyl)thiazol-2-amine], the figure is less than 1000 nM; as for `CCCCCOc1ccc(Nc2nc(-c3cccc(F)c3)cs2)cn1` [compound 178, N-(4-(3-fluorophenyl)thiazol-2-yl)-6-(pentyloxy)pyridin-3-amine], less than 1000 nM.
Take `CCCCCOc1ccc(Nc2nc(-c3cc(-c4ccc(Cl)c(Cl)c4)no3)cs2)cn1` [compound 179, N-(4-(3-(3,4-dichlorophenyi)isoxazol-5-yl)thiazol-2-yl)-6-(pentyloxy)pyridin-3-amine]: the EC50 is greater than 10000 nM.
As for `CCCCCOc1ccc(Nc2nc(-c3cc(C(=O)OCC)no3)cs2)cn1` [compound 180, ethyl 5-(2-(6-(pentyloxy)pyridin-3-ylamino)thiazol-4-yl)isoxazole-3-carboxylate], the figure is greater than 10000 nM; as for `CCCCCOc1ccc(Nc2nc(-c3ccccc3Cl)cs2)cn1` [compound 181, N-(4-(2-chlorophenyl)thiazol-2-yl)-6-(pentyloxy)pyridin-3-amine], less than 1000 nM.
As for `CCCCCc1ccc(Nc2nc(-c3ccc(CC(=O)O)cc3)c(C)s2)cc1` [compound 182, 2-(4-(2-(4-pentylphenylamino)-5-methylthiazol-4-yl)phenyl)acetic acid], the figure is less than 1000 nM.
The same measure for `CCCCCc1ccc(Nc2nc(-c3cccc(F)c3)cs2)cc1` [compound 183, 4-(3-fluorophenyl)-N-(4-pentylphenyl)thiazol-2-amine]: less than 1000 nM.
`CCCCCc1ccc(Nc2nc(-c3cc(-c4ccc(Cl)c(Cl)c4)no3)cs2)cc1` [compound 184, 4-(3-(3,4-dichlorophenyl)isoxazol-5-yl)-N-(4-pentylphenyl)thiazol-2-amine]: the EC50 was greater than 10000 nM.
The same measure for `CCCCCc1ccc(Nc2nc(-c3cc(C(=O)OCC)no3)cs2)cc1` [compound 185, ethyl 5-(2-(4-pentylphenylamino)thiazol-4-yl)isoxazole-3-carboxylate]: greater than 10000 nM; for `CCCCCc1ccc(Nc2nc(-c3ccccc3Cl)cs2)cc1` [compound 186, 4-(2-chlorophenyl)-N-(4-pentylphenyl)thiazol-2-amine]: greater than 10000 nM; for `Cc1sc(Nc2cccc(Oc3ccccc3)c2)nc1-c1ccc(CC(=O)O)cc1` [compound 187, 2-(4-(2-(3-phenoxyphenylamino)-5-methylthiazol-4-yl)phenyl)acetic acid]: less than 1000 nM.
As to `Fc1cccc(-c2csc(Nc3cccc(Oc4ccccc4)c3)n2)c1` [compound 188, 4-(3-fluorophenyl)-N-(3-phenoxyphenyl)thiazol-2-amine], the EC50 was less than 1000 nM.
The same measure for `Clc1ccc(-c2cc(-c3csc(Nc4cccc(Oc5ccccc5)c4)n3)on2)cc1Cl` [compound 189, 4-(3-(3,4-dichlorophenyl)isoxazol-5-yl)-N-(3-phenoxyphenyl)thiazol-2-amine]: greater than 10000 nM.
`CCOC(=O)c1cc(-c2csc(Nc3cccc(Oc4ccccc4)c3)n2)on1` [compound 190, ethyl S-(2-(3-phenoxyphenylamino)thiazol-4-yl)isoxazole-3-carboxylate]: the EC50 was greater than 10000 nM.
The same measure for `Clc1ccccc1-c1csc(Nc2cccc(Oc3ccccc3)c2)n1` [compound 191, 4-(2-chlorophenyl)-N-(3-phenoxyphenyl)thiazol-2-amine]: less than 1000 nM.
The same measure for `Cc1sc(Nc2cccc(OCc3ccccc3)c2)nc1-c1ccc(CC(=O)O)cc1` [compound 192, 2-(4-(2-(3-(benzyloxy)phenylamino)-5-methylthiazol-4-yl)phenyl)acetic acid]: less than 1000 nM; for `Fc1cccc(-c2csc(Nc3cccc(OCc4ccccc4)c3)n2)c1` [compound 193, N-(3-(benzyloxy)phenyl)-4-(3-fluorophenyl)thiazol-2-amine]: less than 1000 nM.
As for `Clc1ccc(-c2cc(-c3csc(Nc4cccc(OCc5ccccc5)c4)n3)on2)cc1Cl` [compound 194, N-(3-(benzyloxy)phenyl)-4-(3-(3,4-dichlorophenyl)isoxazol-5-yl)thiazol-2-amine], the figure is greater than 10000 nM; as for `CCOC(=O)c1cc(-c2csc(Nc3cccc(OCc4ccccc4)c3)n2)on1` [compound 195, ethyl 5-(2-(3-(benzyloxy)phenylamino)thiazol-4-yl)isoxazole-3-carboxylate], greater than 10000 nM.
For the compound `Clc1ccccc1-c1csc(Nc2cccc(OCc3ccccc3)c2)n1` [compound 196, N-(3-(benzyloxy)phenyl)-4-(2-chlorophenyl)thiazol-2-amine], the EC50 was less than 1000 nM.
Turning to `CCCCCOc1ccc(Nc2nc(-c3ccc(CC(=O)O)cc3)c(C)s2)cc1C(F)(F)F` [compound 197, 2-(4-(2-(3-(trifluoromethyl)-4-(pentloxy)phenylamino)-5-methylthiazol-4-yl)phenyl)acetic acid], the EC50 is less than 1000 nM.
With `CCCCCOc1ccc(Nc2nc(-c3cccc(F)c3)cs2)cc1C(F)(F)F` [compound 198, N-(3-(trifluoromethyl)-4-(pentyloxy)phenyl)-4-(3-fluorophenyl)thiazol-2-amine], the EC50 is less than 1000 nM.
For the compound `CCCCCOc1ccc(Nc2nc(-c3ccc4c(c3)NC(=O)CO4)cs2)cc1C(F)(F)F` [compound 199, 6-(2-(3-(trifluoromethyl)-4-(pentyloxy)phenylamino)thiazol-4-yl)-2H-benzo[b][1,4]oxazin-3(4H)-one], the EC50 is less than 1000 nM.
With `CCCCCOc1ccc(Nc2nc(-c3ccc(CC(=O)O)s3)cs2)cc1C(F)(F)F` [compound 200, 2-(5-(2-(3-(trifluoromethyl)-4-(pentyloxy)phenylamino)thiazol-4-yl)thiophen-2-yl)acetic acid], the EC50 is less than 1000 nM.
The same measure for `CCCCCOc1ccc(Nc2nc(-c3cc(-c4ccc(Cl)c(Cl)c4)no3)cs2)cc1C(F)(F)F` [compound 201, 4-(3-(3,4-dichlorophenyl)isoxazol-5-yl)-N-(3-(trifluoromethyl)-4-(pentyloxy)phenyl)thiazol-2-amine]: greater than 10000 nM; for `CCCCCOc1ccc(Nc2nc(-c3cc(C(=O)OCC)no3)cs2)cc1C(F)(F)F` [compound 202, ethyl 5-(2-(3-(trifluoromethyl)-4-(pentyloxy)phenylamino)thiazol-4-yl)isoxazole-3-carboxylate]: less than 1000 nM.
As for `CCCCCOc1ccc(Nc2nc(-c3ccccc3Cl)cs2)cc1C(F)(F)F` [compound 203, 4-(2-chlorophenyl)-N-(3-(trifluoromethyl)-4-(pentyloxy)phenyl)thiazol-2-amine], the EC50 was less than 1000 nM.
With `CCCCCOc1ccc(Nc2nc(C(=O)CBr)cs2)cc1C(F)(F)F` [compound 204, 1-(2-(3-(trifluoromethyl)-4-(pentyloxy)phenylamino)thiazol-4-yl)-2-bromoethanone], the EC50 is less than 1000 nM.
On to `COc1cccc2sc(Nc3nc(-c4ccncc4)cs3)nc12` [compound 205, 4-methoxy-N-(4-(pyridin-4-yl)thiazol-2-yl)benzo[d]thiazol-2-amine], for which the EC50 is less than 1000 nM.
Turning to `Fc1ccc2nc(Nc3nc(-c4cccnc4)cs3)sc2c1` [compound 206, 6-fluoro-N-(4-(pyridin-3-yl)thiazol-2-yl)benzo[d]thiazol-2-amine], the EC50 was 1000 to 10000 nM.
Turning to `COc1cccc2sc(Nc3nc(-c4cccnc4)cs3)nc12` [compound 207, 4-methoxy-N-(4-(pyridin-3-yl)thiazol-2-yl)benzo[d]thiazol-2-amine], the EC50 lay within 1000 to 10000 nM.
Turning to `CCCCCOc1ccc(Nc2nc(N)cs2)cc1C(F)(F)F` [compound 208, N2-(3-(trifluoromethyl)-4-(pentyloxy)phenyl)thiazole-2,4-diamine], the EC50 was 1000 to 10000 nM.
For `CCCCCOc1ccc(Nc2nc(-c3ccc(C(=O)OC)cn3)cs2)cc1C(F)(F)F` [compound 211, methyl 6-(2-(3-(trifluoromethyl)-4-(pentyloxy)phenylamino)thiazol-4-yl)pyridine-3-carboxylate], the EC50 is less than 1000 nM.
As for `CCCCCOc1ccc(Nc2nc(-c3ccc(C(=O)O)cn3)cs2)cc1C(F)(F)F` [compound 213, 6-(2-(3-(trifluoromethyl)-4-(pentyloxy)phenylamino)thiazol-4-yl)pyridine-3-carboxylic acid], the figure is less than 1000 nM.
The same measure for `FC(F)Oc1ccc(-c2csc(Nc3cccnc3)n2)cc1` [compound 214, N-(4-(4-(difluoromethoxy)phenyl)thiazol-2-yl)pyridin-3-amine]: greater than 10000 nM.
For `CCCCCOc1ccc(Nc2nc(-c3ccc(C(=O)N(C)C)cn3)cs2)cc1C(F)(F)F` [compound 215, 6-(2-(3-(trifluoromethyl)-4-(pentyloxy)phenylamino)thiazol-4-yl)-N,N-dimethylpyridine-3-carboxamide], the EC50 was less than 1000 nM.
As for `CCCCCOc1ccc(Nc2nc(CN3CCNC(=O)C3)cs2)cc1C(F)(F)F` [compound 216, 4-((2-(3-(trifluoromethyl)-4-(pentyloxy)phenylamino)thiazol-4-yl)methyl)piperazin-2-one], the figure is less than 1000 nM; as for `CCCCCOc1ccc(Nc2nc(CN3CCN(C)CC3)cs2)cc1C(F)(F)F` [compound 217, N-(3-(trifluoromethyl)-4-(pentyloxy)phenyl)-4-((4-methylpiperazin-1-yl)methyl)thiazol-2-amine], less than 1000 nM.
